Source: patent publication US20230141777A1, “COMPOSITION WHICH IS FOR TREATING OR PREVENTING RENAL CELL CANCER AND CONTAINS D-ALLOSE AS ACTIVE INGREDIENT, AND METHOD FOR TREATING OR PREVENTING CANCER USING SAME” (NATIONAL UNIVERSITY CORPORATION KAGAWA UNIVERSITY, priority 2020, published 2023)
Entries after “also recorded” stand apart in the source; their conditions may differ.

Legend:
[1] = test system: human renal cell carcinoma cell line Caki-1; assay: Intracellular reactive oxygen species (ROS) production, DCF-DA fluorescence, Caki-1; assay type: cell-based; conditions: Caki-1, 50 mM D-allose, co-culture 1 hour, vs DMSO
Experimental: (§1) After seeding human renal cell carcinoma cell line (Caki-1 or ACHN) at 5.0×10^5 in a 100 mm dish, culturing for 24 hours and then co-culturing with DMSO or D-allose (50 mM) for 1 hour, 10 μM 2,7-Dichlorofluorescin diacetate (DCF-DA; D6883, Sigma-Aldrich, USA) was added and the mixture was allowed to stand at 37° C. for 30 minutes. The cells were recovered with trypsin treatment and collected by centrifugal separation for 5 minutes at 3500×g, after which they were resuspended in ice-cold PBS and a CytoFLEX S (Beckman Coulter, CA, USA) was used to detect the DCF-DA fluorescence. Each experiment was conducted 3 times, and the data were analyzed using CytExpert software and recorded as the average value±SE (FIG. 8).

[2] = test system: human colorectal cancer cell line (DLD-1) xenotransplantation mice; assay: Change in tumor volume in colorectal cancer xenotransplantation mouse model by administration of D-allose; assay type: in vivo; conditions: DLD-1 xenograft, Mann-Whitney U test
Experimental: A cell suspension containing 2.0×10^6 cells of a human colorectal cancer cell line (DLD-1) was injected into femoral subcutaneous tissue of Male athymic nude mice (BALB/c Nude (nu/nu)mice), and adjustment of D-allose or D-glucose was initiated with “day 0” defined as the day when the tumor volume reached about 100 to 150 mm^3.
(§2) D-allose or D-glucose was intraperitoneally administered at 400 mg/kg to colorectal cancer xenotransplantation mice whose tumor volumes had reached about 100 mm^3. Physiological saline was used as the solvent for adjustment to 0.2 ml, and administration was once per day for a total of 30 days. The tumor volumes were measured every 6 days.
as §2, with “orally” for “intraperitoneally”, “100” for “400”, “100 to 150” for “100”, “Distilled water” for “Physiological saline”

TXNIP [3] = assay: TXNIP expression (Western blotting) in Caki-2; assay type: cell-based, human; conditions: Caki-2, 10, 25 or 50 mM D-allose, 48 hours
Experimental: (§3) A human renal cell carcinoma cell line (Caki-1 or Caki-2) was seeded at 5.0×10^5 in a 100 mm dish and cultured for 24 hours, after which it was co-cultured with D-allose (10, 25 or 50 mM). After 48 hours, the cells were recovered and the protein was extracted, and the concentration of each protein was measured using a Bio-Rad Protein Assay Kit (Bio-Rad, Laboratories, Inc. USA). A protein sample ([…]) was electrophoresed on 10% Mini-PROTAN TGX Precast Gel (Bio-Rad) and a Trans-Blot Turbo transfer system (Bio-Rad) was used for transfer onto a PVDF Western Blotting Membrane. After blocking treatment for 1 hour (Superblock T20. Thermo, Rockford. Ill., USA), anti-TXNIP antibody (D5F3E, CST. USA. 1:1000) was used as primary antibody for reaction using an iBind Flex Western System (Thermo). The loading control used was β-actin (ab8227, abcam, CamBridge, UK, 1:1000).

[4] = test system: human renal cell carcinoma cell line ACHN; assay: Intracellular reactive oxygen species (ROS) production, DCF-DA fluorescence, ACHN; assay type: cell-based; conditions: 50 mM D-allose, co-culture 1 hour, vs DMSO
Experimental: as §1

[5] = Change in tumor D-allose concentration after intraperitoneal or oral administration of D-allose to renal cell carcinoma xenotransplantation mouse model (HPLC); assay type: in vivo; conditions: for D-allose detected in tumor: by 1 hour after oral administration
Experimental: (§4) The experiment was conducted using two different human renal cell carcinoma cell lines (Caki-1, ACHN). Each of the cells was cultured in a moist environment at 37° C., 5% CO2 using 10% fetal bovine serum and RPMI-1640 culture solution (2000 mg D-glucose/L) containing HEPES buffer and penicillin-streptomycin. The renal cell carcinoma xenotransplantation mouse model was prepared by adjusting cultured cells to a 1.0×10^5 cell/mL cell suspension with MEM culture solution, injecting 0.1 mL into the femoral subcutaneous tissue of Female athymic nude mice (BALB/c nu/nu, 6 weeks old), and confirming a tumor volume of 200 mm^3 or greater after 1 week, and it was used for the following experiment.
In a xenotransplantation mouse model of two different human renal cell carcinoma cell lines (Caki-1, ACHN), tumors were enucleated from the mice at the 1st hour, 2nd hour and 4th hour before and after administration of D-allose by intraperitoneal administration (FIGS. 1(A) and (B)) or oral administration (FIGS. 1(C) and (D)) of a solution of rare sugar D-allose prepared using physiological saline to 400 mg/kg/0.2 mL. The monosaccharides in the supernatant obtained by ultrasonic disruption of the tumors in 1 mL of PBS and centrifugal separation at 3000 rpm for 5 minutes were labeled with ABEE (4-aminobenzoic acid ethyl ester) and the D-allose was quantitatively analyzed by HPLC (high performance liquid chromatography) (FIG. 1).

TXNIP [6] = assay: TXNIP expression (Western blotting) in Caki-1; assay type: cell-based, human; conditions: Caki-1, 10, 25 or 50 mM D-allose, 48 hours
Experimental: as §3

[7] = Body weight and HE staining of kidney and liver tissue in renal cell carcinoma xenotransplantation mouse model after oral D-allose; assay type: in vivo
Experimental: (§5) A D-allose-containing solution was orally administered from day 1, where “day 0” was defined as the day when the tumor size of the renal cell carcinoma xenotransplantation mouse model prepared using Caki-1 as the human renal cell carcinoma cell line reached 200 mm^3 or greater.
(§6) Either 0.2 mL physiological saline or 0.2 mL physiological saline dissolving 400 mg/kg D-allose was injected into the esophagus of mice divided into 2 groups (control group and D-allose group), through a Neraton catheter. The administration was carried out once a day for a total of 32 consecutive days. The mouse body weights and the long and short diameters of the tumors were measured twice a week. The tumor volumes were calculated as: tumor long diameter×short diameter×short diameter×0.5. The livers and kidneys were extracted with the tumors from the mice on the 32nd day after the start of oral administration and used for the subsequent experiment.
(§7) The tumors, kidneys and livers were extracted from the renal cell carcinoma xenotransplantation mouse models (control group and D-allose-administered group, 32nd day after start of administration), and the tissues were fixed with 4% paraformaldehyde/phosphate buffer, embedded in paraffin and sliced to thicknesses of 4 μm. The thin slices were stained with hematoxylin-eosin staining (HE staining) and observed (FIG. 3, FIG. 5 and FIG. 6).

[8] = test system: human renal cell carcinoma cell line Caki-1 xenotransplantation mouse model; assay: Change in tumor volume and tumor histology in renal cell carcinoma xenotransplantation mouse model by oral administration of D-allose; assay type: in vivo; conditions: Caki-1 xenograft
Experimental: as §4, §5, §6, §7

- tumor D-allose concentration with oral administration relative to intraperitoneal administration ([5]; 400 mg/kg, Caki-1 and ACHN tumors (not distinguished)): about 80%
- D-allose detected in tumor ([5]; ACHN tumors, 400 mg/kg): detected in all of the tumors
- D-allose detected in tumor ([5]; Caki-1 tumors, 400 mg/kg): detected in all of the tumors
- time of maximum intratumoral D-allose concentration ([5]; Caki-1 tumors, oral administration, 400 mg/kg): 1 h
SMILES: O=C[C@H](O)[C@H](O)[C@H](O)[C@H](O)CO [D-allose]
- intracellular ROS [1]: significantly increased
- tumor volume compared to the D-glucose group ([2]; intraperitoneal 400 mg/kg once per day for 30 days, after the 18th day): significantly smaller
- tumor volume compared to the D-glucose group ([2]; oral 100 mg/kg once per day for 30 days, 100 mg/kg): no significant difference; also recorded: has not exhibited the anticancer effect
- TXNIP expression (TXNIP [3]): increases TXNIP expression in a D-allose dose-dependent manner
- intracellular ROS [4]: significantly increased
- uptake into renal cell carcinoma compared to non-transintestinal (intraperitoneal) administration ([5]; transintestinal administration, summary statement): equivalent rate or with approximately about 20% reduction
- TXNIP expression (TXNIP [6]): increases TXNIP expression in a D-allose dose-dependent manner
- body weight compared to the control group ([7]; oral 400 mg/kg once a day, 32-day observation period): no significant difference
- HE staining images of kidney tissue compared to the control group ([7]; oral 400 mg/kg/day, 32nd day): No particular difference
- HE staining images of liver tissue compared to the control group ([7]; oral 400 mg/kg/day, 32nd day): No particular difference
- tumor volume at the 32nd day compared to tumor volume before D-allose administration ([8]; oral 400 mg/kg once a day for 32 days): significantly reduced
- tumor volume compared to the control group ([8]; oral 400 mg/kg once a day, after the 8th day, Mann-Whitney U test): significantly reduced
- nuclear fission in HE stained tumor tissue ([8]; oral 400 mg/kg/day, 32nd day, evaluation by a pathology specialist): reduced nuclear fission
